Assay results as given in paper PMC12186843, “Targeting GABAergic Hypofunction Associated with Schizophrenia: Identification of α1β2γ2GABA‑A Receptor Ligands with Neuroprotective and Antipsychotic Properties” (ACS Chemical Neuroscience, 2025).

How the values were obtained:
SH-SY5Y cells [1] = test: PrestoBlue cell viability assay; format: cell-based; conditions: Table S2, 24 h
Protocol: Cell viability was determined using the Presto Blue reagent (ThermoFisher) following the manufacturer’s instructions.
(§1) 1. Cytotoxicity studies for selected compounds
Table S1. The viability of the cells SH-SY5Y after treatment with tested compounds for 24 the results are expressed as a percentage of dead cells with luminescence ToxiLight Assay. The results are expressed as a per cent of control with whole […]
percentage of live cells with fluorescence PrestoBlue Assay. The results are expressed as a per cent of vehicle (DMSO).

SH-SY5Y cells [2] = test: Intracellular calcium concentration after 6-OHDA (Fluo-4); format: cell-based, human; conditions: 50 μM pretreatment 1 h, then 6-OHDA 250 μM 1 h
Protocol: 7 (A). Effect of 6-Hydroxydopamine (6-OHDA) on intracellular calcium concentration [Ca^2+] determined by Fluo-4 AM. After pretreatment with tested compounds (50 μM) or vehicle (0.5% DMSO, v/v) for 1 h, the cells were incubated with 6-Hydroxydopamine (6-OHDA, 250 μM) for 1 h. 6-OHDA control: cells treated with 250 μM of 6-OHDA. […]. DMSO control: cells treated with 0.5% DMSO only. Data are presented as the mean ± SD from 2–3 independent experiments. Experiments were carried on with ImageXpress Micro XLS (Molecular Devices). (B) The level of ROS generation was determined by Cell ROX dye. After pretreatment with tested compounds (50 μM) or vehicle (0.5% DMSO, v/v) for 1 h, the cells were incubated with hydrogen peroxide (H2O2, 300 μM) for 1 h. H2O2 control: cells treated with H2O2 (300 μM). DMSO control: cells treated with 0.5% DMSO only. Data are presented as the mean ± SD from 2–3 independent experiments. Experiments were carried on with the ImageXpress Micro XLS (Molecular Devices).
The SH-SY5Y human neuroblastoma cell line was maintained according to established protocols. The cells, obtained from the American Type Culture Collection (ATCC), were cultured in Dulbecco’s Modified Eagle’s Medium (DMEM, high glucose; Thermo Fisher), supplemented with 10% fetal bovine serum (Thermo Fisher), 100 IU/ml penicillin (Merck), and 100 μg/mL streptomycin (Merck). They were grown in 75 cm^2 flasks (Nunc) at 37 °C in a humidified atmosphere containing 5% CO2. For compound evaluation, SH-SY5Y cells were plated in 96-well plates (Falcon) at a density of 2 × 10^4 cells per well. The cells were allowed to adhere and grow for 24 h in an incubator set to 37 °C and 5% CO2 before starting the experiments. Stock solutions of both test and reference compounds were prepared at a concentration of 10^–2 M. A minimum of 1 mg of each compound was dissolved in dimethyl sulfoxide (DMSO). Serial dilutions were made in DMSO, then further diluted in PBS, mixed, and added to the cell culture medium.
The intracellular Ca^2+ levels were assessed using a homogeneous cell-based assay with the Fluo-4 Direct Calcium Assay Kit (Thermo Fisher). Following incubation with the tested compounds, the supernatant was discarded, and the cells were incubated with 1 μM Fluo-4/AM in FluoroBrite DMEM (Thermo Fisher) for 1 h at 37 °C. The results were expressed as a percentage relative to the control (DMSO). Fluorescence intensity was recorded using the ImageXpress Micro XLS system (Molecular Devices).

SH-SY5Y cells [3] = test: ToxiLight assay (cell membrane damage); format: cell-based; conditions: Table S1, 24 h
Protocol: Damage to the cell membrane was assessed using the bioluminescent ToxiLight bioassay (Lonza), a profound method for detecting cell toxicity. Following 24 h of treatment, 5 μL of the supernatant above the sediment was transferred to a 384-well plate (PerkinElmer). Subsequently, 20 μL of Adenylate Kinase Detection Reagent (AKDR) was added to each well. Luminescence was recorded after a 10 min incubation period using a POLARstar Omega plate reader (BMG Labtech). Results are presented as a percentage relative to the control sample (cells lysed), reflecting the proportion of dead cells compared to the control.
as §1
Table S1. The viability of the cells SH-SY5Y after treatment with tested compounds for 24 the results are expressed as a percentage of dead cells with luminescence ToxiLight Assay. The results are expressed as a per cent of control with whole lysis cells. N.C. not countable […]
Table S2. The viability of the cells SH-SY5Y after treatment with tested compounds for 24 h the results are expressed as a percentage of live cells with fluorescence PrestoBlue Assay. The results are expressed as a per cent of vehicle (DMSO). […]

α1β2γ2 GABA-A receptor = molecular target: T1, α1β2γ2 GABA-A receptor (Homo sapiens, UniProt P14867+P18507); test: Electrophysiological studies (QPatch16X automated patch-clamp), PAM efficacy; format: cell-based
T1 construct: expressed in transfected cells

PAMPA permeability assay = format: in vitro ADME; conditions: PBS pH 7.4, 100 μM, zolpidem tested as tartrate; for Permeability Pe ± SD: 5 h
Protocol: PAMPA. The precoated PAMPA Plate System Gentest, obtained from Corning (Tewksbury, MA, USA), was used for the permeability study. The system includes a 96-well receiver filter plate precoated with structured phospholipid layers and a matching donor microplate. Stock solutions of the test compounds and reference drugs were prepared in PBS buffer (pH 7.4) at a final concentration of 100 μM. Each compound solution (200 μL) was added to the donor wells and incubated at room temperature for 5 h. The quantity of molecules that penetrated from the donor wells to the acceptor wells through the phospholipid membrane was determined using UPLC-MS spectrometry (Waters ACQUITY TQD system with the TQ Detector, Waters, Milford, USA) with an internal standard. Permeability coefficients (Pe, cm/s) were calculated according to the formula provided by the manufacturer.

[4] = literature value; cited from earlier work
GABA-A receptor = test: Radioligand binding at the GABA-A receptor; parameters: species or system rat; conditions: mean of two-three independent experiments; read-out: GABA-A Ki ± SEM
Protocol: The study was conducted in accordance with previously established protocols, and performed in duplicate. Rat brains were homogenized and prepared following the described methodologies. The assay was carried out directly on 96-well microplates containing 50 mM Tris-HCl buffer (pH 7.4) in a total volume of 300 μL. […] To determine nonspecific binding, 100 μM GABA was included in the mixture. The 96-well microplates were incubated at 0 °C for 10 min, followed by rapid filtration through FilterMate B glass fiber filters (PerkinElmer, USA) using a Harvester-96 MACH III FM (Tomtec, USA). The filters were gently dried in a microwave and sealed in plastic bags (PerkinElmer, USA). Each filter was then immersed in 10 mL of Ultima Gold MV liquid scintillation cocktail (PerkinElmer, USA). […] Ki values were calculated using the Cheng and Prusoff equation, and statistical analyses were conducted using GraphPad Prism (version 4.0, San Diego, CA, USA)

T1 sequence (P14867 28-456): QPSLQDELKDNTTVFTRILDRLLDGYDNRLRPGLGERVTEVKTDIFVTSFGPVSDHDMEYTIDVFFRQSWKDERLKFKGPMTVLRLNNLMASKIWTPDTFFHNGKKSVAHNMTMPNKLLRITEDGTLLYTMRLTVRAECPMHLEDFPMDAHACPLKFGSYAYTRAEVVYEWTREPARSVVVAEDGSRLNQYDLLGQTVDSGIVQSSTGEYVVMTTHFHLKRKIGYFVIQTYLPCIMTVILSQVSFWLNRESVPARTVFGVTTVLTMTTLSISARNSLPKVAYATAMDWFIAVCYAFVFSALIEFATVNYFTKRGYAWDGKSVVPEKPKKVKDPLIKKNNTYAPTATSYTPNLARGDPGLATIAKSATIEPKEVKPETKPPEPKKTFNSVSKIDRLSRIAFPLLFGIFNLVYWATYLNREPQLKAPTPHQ
T1 sequence (P47870 25-512 partner limits assumed): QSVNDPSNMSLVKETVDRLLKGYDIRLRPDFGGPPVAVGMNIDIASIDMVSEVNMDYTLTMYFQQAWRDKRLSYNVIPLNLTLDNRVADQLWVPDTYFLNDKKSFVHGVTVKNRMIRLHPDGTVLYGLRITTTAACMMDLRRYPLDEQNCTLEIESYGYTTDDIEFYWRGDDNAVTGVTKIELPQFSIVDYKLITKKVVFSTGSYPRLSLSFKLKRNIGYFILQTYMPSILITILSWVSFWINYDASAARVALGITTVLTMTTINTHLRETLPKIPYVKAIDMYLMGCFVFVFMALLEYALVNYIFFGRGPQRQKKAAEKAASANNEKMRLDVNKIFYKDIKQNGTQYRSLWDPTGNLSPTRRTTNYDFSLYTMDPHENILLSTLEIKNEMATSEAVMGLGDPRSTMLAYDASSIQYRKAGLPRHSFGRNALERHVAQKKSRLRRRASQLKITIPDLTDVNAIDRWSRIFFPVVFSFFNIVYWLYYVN
T1 sequence (P18507 40-475): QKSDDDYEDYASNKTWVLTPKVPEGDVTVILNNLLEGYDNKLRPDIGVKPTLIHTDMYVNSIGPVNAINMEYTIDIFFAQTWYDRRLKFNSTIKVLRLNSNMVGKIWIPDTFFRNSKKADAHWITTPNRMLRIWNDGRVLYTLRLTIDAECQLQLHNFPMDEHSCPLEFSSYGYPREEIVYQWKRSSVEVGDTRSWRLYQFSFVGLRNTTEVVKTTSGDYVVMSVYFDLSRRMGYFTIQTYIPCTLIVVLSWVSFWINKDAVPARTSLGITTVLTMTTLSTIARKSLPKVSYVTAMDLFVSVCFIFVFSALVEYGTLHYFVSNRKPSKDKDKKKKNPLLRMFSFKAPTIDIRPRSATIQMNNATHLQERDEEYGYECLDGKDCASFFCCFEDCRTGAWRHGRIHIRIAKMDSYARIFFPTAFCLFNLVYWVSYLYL

Structure (SMILES) | Reduction of intracellular calcium levels (SH-SY5Y cells [2]) [%] | X [%], percentage of dead cells, ToxiLight Assay (per cent of control with whole lysis cells) (SH-SY5Y cells [3]; 1E-04 M) [%] | X [%], percentage of dead cells, ToxiLight Assay (per cent of control with whole lysis cells) (SH-SY5Y cells [3]; 1E-05 M) [%] | X [%], percentage of dead cells, ToxiLight Assay (per cent of control with whole lysis cells) (SH-SY5Y cells [3]; 1E-06 M) [%] | X [%], percentage of dead cells, ToxiLight Assay (per cent of control with whole lysis cells) (SH-SY5Y cells [3]; 1E-07 M) [%] | X [%], percentage of dead cells, ToxiLight Assay (per cent of control with whole lysis cells) (SH-SY5Y cells [3]; 1E-08 M) [%] | X [%], percentage of dead cells, ToxiLight Assay (per cent of control with whole lysis cells) (SH-SY5Y cells [3]; 1E-09 M) [%] | X [%], percentage of dead cells, ToxiLight Assay (per cent of control with whole lysis cells) (SH-SY5Y cells [3]; 3E-05 M) [%] | X [%], percentage of dead cells, ToxiLight Assay (per cent of control with whole lysis cells) (SH-SY5Y cells [3]; 3E-06 M) [%] | Permeability Pe ± SD (PAMPA permeability assay) | further results
Cc1ccc2nc(-c3ccc(F)cc3)c(CC(=O)N3CCSC3)n2c1 [Compound 15, 2-[2-(4-Fluorophenyl)-6-methylimidazo[1,2-a]pyridin-3-yl]-1-(1,3-thiazolidin-3-yl)ethan-1-one] | ≤ 50 | 67 | 108 | 110 | 107 | 108 | 101 | 96 | 105 | 7.89 ± 1.35 ·10^–6 cm/s | X [%], percentage of live cells, PrestoBlue Assay (per cent of vehicle DMSO) (SH-SY5Y cells [1]; 1E-04 M): 14%; X [%], percentage of live cells, PrestoBlue Assay (per cent of vehicle DMSO) (SH-SY5Y cells [1]; 1E-05 M): 12%; X [%], percentage of live cells, PrestoBlue Assay (per cent of vehicle DMSO) (SH-SY5Y cells [1]; 1E-06 M): 16%; X [%], percentage of live cells, PrestoBlue Assay (per cent of vehicle DMSO) (SH-SY5Y cells [1]; 1E-07 M): 14%; X [%], percentage of live cells, PrestoBlue Assay (per cent of vehicle DMSO) (SH-SY5Y cells [1]; 1E-08 M): 15%; X [%], percentage of live cells, PrestoBlue Assay (per cent of vehicle DMSO) (SH-SY5Y cells [1]; 1E-09 M): 14%; X [%], percentage of live cells, PrestoBlue Assay (per cent of vehicle DMSO) (SH-SY5Y cells [1]; 3E-05 M): 15%; X [%], percentage of live cells, PrestoBlue Assay (per cent of vehicle DMSO) (SH-SY5Y cells [1]; 3E-06 M): 15%; EC50 (α1β2γ2 GABA-A receptor): 0.743 ± 0.136 µM; Papp at 5 h, 100 μM (PAMPA permeability assay; pH 7.4, PAMPA, read-out: Permeability Pe ± SD): > 4 ×10⁻⁶ cm/s
Cc1ccc(-c2nc3ccc(C)cn3c2CC(=O)N(C)C)cc1 [zolpidem, reference compound] | 47 | 71 | 92 | 98 | 100 | 101 | 100 | 90 | 96 | 21.6 ± 1.26 ·10^–6 cm/s | plasma half-life (t0,5) in humans [4]: 2–3 h and ≈ 2 h; Ki (GABA-A receptor): 0.0378 ± 0.0027 µM
